Measurements: patent US12043600B2, “Microbiocidal compounds” (SYNGENTA CROP PROTECTION AG, priority 2018, dated 2024)

Tests used:
Pythium ultimum = test: Pythium ultimum/Liquid Culture (Seedling Damping Off); assay type: cell-based; details: Globisporangium ultimum, liquid culture, compared to untreated control
Protocol: Mycelia fragments and oospores of a newly grown liquid culture of the fungus are directly mixed into nutrient broth (PDB potato dextrose broth). After placing a (DMSO) solution of test compound into a microtiter plate (96-well format), the nutrient broth containing the fungal mycelia/spore mixture is added.

[1] = test system: Puccinia recondita f. sp. tritici; test: Puccinia recondita f. sp. tritici/Wheat/Leaf Disc Curative (Brown Rust); assay type: in vivo; details: foliar, wheat leaf disc curative, compared to untreated control
Outline: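 Formulated compound, diluted in water, is applied to inoculated wheat cv. Kanzler leaf segments on agar one day post-inoculation (pre-incubation dark, 19° C, 75% rh). After 6-8 days at 19° C, 75% rh and 12 h/12 h light, activity is rated as percent disease control relative to untreated segments.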

Plasmopara viticola = test: whole plant or invertebrate; assay type: in vivo; details: foliar, read-out: control of Plasmopara viticola
[2] = test system: Monographella nivalis (Microdochium nivale); test: Monographella nivalis (Microdochium nivale)/Liquid Culture (Foot Rot Cereals); assay type: cell-based; details: liquid culture, compared to untreated control
Outline: (§1)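 PDB + cryo-stored conidia; compound in DMSO pre-plated, spore broth added on top.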

[3] = test system: Mycosphaerella arachidis (Cercospora arachidicola); test: Mycosphaerella arachidis (Cercospora arachidicola)/Liquid Culture (Early Leaf Spot); assay type: cell-based; details: liquid culture, compared to untreated control
Outline: as §1

[4] = test system: Phaeosphaeria nodorum (Septoria nodorum); test: Phaeosphaeria nodorum (Septoria nodorum)/Wheat/Leaf Disc Preventative (Glume Blotch); assay type: in vivo; details: Parastagonospora nodorum, foliar, wheat leaf disc preventative, compared to untreated control
Outline: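 Preventative test: compound spray first, then spore inoculation after 2 days on cv. Kanzler wheat leaf segments. Incubation in a climate cabinet at 20 °C and 75% rh under a 12 h light/12 h dark cycle. Activity rated as % control relative to untreated discs at 5–7 days post-application.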

[5] = test system: Mycosphaerella graminicola (Septoria tritici); test: Mycosphaerella graminicola (Septoria tritici)/Liquid Culture (Septoria Blotch); assay type: cell-based; details: Zymoseptoria tritici; 20 ppm; liquid culture; compared to untreated control
Outline: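 Results given as % disease control: test compound in DMSO was placed in wells first, then potato dextrose broth carrying cryostored fungal conidia was added.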

[6] = test system: Magnaporthe grisea (Pyricularia oryzae); test: whole plant or invertebrate; assay type: in vivo; details: foliar, read-out: control of Magnaporthe grisea
Phakopsora pachyrhizi = test: Phakopsora pachyrhizi/Soybean/Preventative (Soybean Rust); assay type: in vivo; details: foliar, 288 h, 200 ppm, soybean leaf disc preventative, compared to untreated control, read-out: control of Phakopsora pachyrhizi
Phytophthora infestans = test: whole plant or invertebrate; assay type: in vivo; details: in Solanum lycopersicum, foliar, read-out: control of Phytophthora infestans
[7] = test system: Blumeria graminis f. sp. tritici (Erysiphe graminis f. sp. tritici); test: Blumeria graminis f. sp. tritici/Wheat/Leaf Disc Preventative (Powdery Mildew on Wheat); assay type: in vivo; details: foliar, wheat leaf disc preventative, compared to untreated control
Outline: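 Preventative leaf-disc test: percent disease control versus untreated leaf segments read 6-8 days post-application. Compound spray applied to wheat cv. Kanzler segments on agar one day before shaking infected plants over them; incubation at 20° C and 60% rh, 24 h darkness then 12 h light/12 h dark cycles.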

[8] = test system: Glomerella lagenarium (Colletotrichum lagenarium); test: Glomerella lagenarium (Colletotrichum lagenarium)/Liquid Culture (Anthracnose); assay type: cell-based; details: Colletotrichum orbiculare, liquid culture, compared to untreated control
[9] = test system: Puccinia recondita f. sp. tritici; test: Puccinia recondita f. sp. tritici/Wheat/Leaf Disc Preventative (Brown Rust); assay type: in vivo; details: foliar, 200 ppm, wheat leaf disc preventative, compared to untreated control, read-out: control of Puccinia recondita f. sp. tritici
Alternaria solani = test: Alternaria solani/Tomato/Leaf Disc (Early Blight); assay type: in vivo; details: foliar, tomato leaf disc, compared to untreated control
Outline: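 Protective leaf-disc test: compound sprayed onto tomato cv. Baby disks, spore inoculation following after 2 days. Disks kept at 80% rh, 12/12 h light/dark, 23° C. day and 21° C. night; activity read as percent disease control relative to untreated checks 5-7 days post-application.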

[10] = Photostability assay (Atlas Suntest); assay type: physicochemical; details: Suntest 750 W/m^2, spotted on microscope slides
Protocol: The testing method to measure the photostability data of each compound in table is D1 is as specifically described below. The objective of the photostability assay was to determine the stability of the individual test compounds in a strictly controlled and reproducible environment allowing a comparison of their photostability.
Method: Compounds were dissolved in methanol (HPLC grade) to give 1 g/L stock solutions. Compound stock solution (2 μl) was spotted onto microscope slides in a 3D printed holder and put into the Atlas Suntest. The spectral output power of the Suntest was set to 750 W/m^2, which is considered typical of the daily maximum (noon) irradiance level on a very bright British Summer day. At specific time points slides were removed from the Suntest and placed in 4D vials. Wash solvent made up of 50:40:10 H2O:MeCN:THF (1 mL) is then added to the vials and whirlimixed. The resulting solution is then subsampled to an HPLC vial to be analysed. A Waters UPLC system with Photodiode Array was used with a Waters reverse phase column (BEH C18, 100×2.1 mm×1.7 μm) and acetonitrile (HPLC grade) acidified water (0.2% formic acid) mobile phase at a flow rate of 0.6 mL/min. Peak detection was at the optimum wavelength and peak areas were used for quantification
Initial and subsequent measurements of peak area attributable to the test compound were used to provide a % parent remaining at 3 hours.

Pyrenophora teres = test: Pyrenophora teres/Barley/Leaf Disc Preventative (Net Blotch); assay type: in vivo; details: foliar, 200 ppm, barley leaf disc preventative, compared to untreated control, read-out: control of Pyrenophora teres
Outline: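 Preventative leaf-disc test: inoculation with fungal spores took place 2 days after spraying segments of barley cv. Hasso, placed on agar, with water-diluted formulated compound. Read-out is % disease control per compound.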

[11] = test system: Thanatephorus cucumeris (Rhizoctonia solani); test: Thanatephorus cucumeris (Rhizoctonia solani)/Liquid Culture (Foot Rot, Damping-Off); assay type: cell-based; details: liquid culture, compared to untreated control
Protocol: Mycelia fragments of a newly grown liquid culture of the fungus are directly mixed into nutrient broth (PDB potato dextrose broth). After placing a (DMSO) solution of the test compounds into a microtiter plate (96-well format), the nutrient broth containing the fungal material is added.

Sclerotinia sclerotiorum = test: Sclerotinia sclerotiorum/Liquid Culture (Cottony Rot); assay type: cell-based; details: liquid culture, compared to untreated control
Protocol: Mycelia fragments of a newly grown liquid culture of the fungus are directly mixed into nutrient broth (PDB potato dextrose broth). After placing a (DMSO) solution of test compound into a microtiter plate (96-well format) the nutrient broth containing the fungal material is added.

[12] = test system: Botryotinia fuckeliana (Botrytis cinerea); test: Botryotinia fuckeliana (Botrytis cinerea)/Liquid Culture (Gray Mould); assay type: cell-based; details: liquid culture, compared to untreated control
Protocol: Conidia of the fungus from cryogenic storage are directly mixed into nutrient broth (Vogels broth). After placing a (DMSO) solution of test compound into a microtiter plate (96-well format), the nutrient broth containing the fungal spores is added.

CO/C=C(\Oc1cc(-n2ccc(C(C)C)n2)cc(F)c1C)C(=O)OC [Compound E-7, methyl (Z)-2-[3-fluoro-5-(3-isopropylpyrazol-1-yl)-2-methyl-phenoxy]-3-methoxy-prop-2-enoate]
inhibition of growth at 20 ppm (Pythium ultimum): ≥ 80%
pest or weed control at 200 ppm [1]: ≥ 80%
pest or weed control at 200 ppm (Plasmopara viticola): ≥ 80%
inhibition of growth at 20 ppm [2]: ≥ 80%
melting point: 114 to 116 °C
inhibition of growth at 20 ppm [3]: ≥ 80%
pest or weed control at 200 ppm [4]: ≥ 80%
inhibition of growth at 20 ppm [5]: ≥ 80%
pest or weed control at 200 ppm [6]: ≥ 80%
pest or weed control at 200 ppm (Phakopsora pachyrhizi): ≥ 50%
pest or weed control at 200 ppm (Phytophthora infestans): ≥ 80%
pest or weed control at 200 ppm [7]: ≥ 80%
inhibition of growth at 20 ppm [8]: ≥ 80%
pest or weed control at 200 ppm [9]: ≥ 80%

CO/C=C(\Oc1cc(-n2ccc(C3(F)CC3)n2)ccc1C)C(=O)OC [Compound E-67, methyl (Z)-2-[5-[3-(1-fluorocyclopropyl)pyrazol-1-yl]-2-methyl-phenoxy]-3-methoxy-prop-2-enoate]
pest or weed control at 200 ppm [1]: ≥ 80%
pest or weed control at 200 ppm (Alternaria solani): ≥ 80%
pest or weed control at 200 ppm (Plasmopara viticola): ≥ 80%
% Parent Remaining @ 3 hrs [10]: 37%
inhibition of growth at 20 ppm [2]: ≥ 80%
pest or weed control at 200 ppm (Pyrenophora teres): ≥ 80%
melting point: 128 to 131 °C
inhibition of growth at 20 ppm [3]: ≥ 80%
pest or weed control at 200 ppm [4]: ≥ 80%
inhibition of growth at 20 ppm [5]: ≥ 80%
pest or weed control at 200 ppm (Phytophthora infestans): ≥ 80%
inhibition of growth at 20 ppm [11]: ≥ 80%
pest or weed control at 200 ppm [7]: ≥ 80%
inhibition of growth at 20 ppm [8]: ≥ 80%
inhibition of growth at 20 ppm (Sclerotinia sclerotiorum): ≥ 80%
pest or weed control at 200 ppm [9]: ≥ 80%

CO/C=C(\Oc1cccc(-n2ncc(C3CC3)n2)c1)C(=O)OC [Compound F-9, methyl (Z)-2-[3-(4-cyclopropyltriazol-2-yl)phenoxy]-3-methoxy-prop-2-enoate]
inhibition of growth at 20 ppm (Pythium ultimum): ≥ 80%
pest or weed control at 200 ppm [1]: ≥ 80%
pest or weed control at 200 ppm (Plasmopara viticola): ≥ 80%
inhibition of growth at 20 ppm [2]: ≥ 80%
inhibition of growth at 20 ppm [3]: ≥ 80%
inhibition of growth at 20 ppm [5]: ≥ 80%
pest or weed control at 200 ppm (Phytophthora infestans): ≥ 80%
pest or weed control at 200 ppm [7]: ≥ 80%
inhibition of growth at 20 ppm [8]: ≥ 80%
pest or weed control at 200 ppm [9]: ≥ 80%

CO/C=C(\Oc1cc(-n2ccc(C3CCCCC3)n2)ccc1C)C(=O)OC [Compound E-36, methyl (Z)-2-[5-(3-cyclohexylpyrazol-1-yl)-2-methyl-phenoxy]-3-methoxy-prop-2-enoate]
pest or weed control at 200 ppm [1]: ≥ 80%
pest or weed control at 200 ppm (Alternaria solani): ≥ 80%
pest or weed control at 200 ppm (Plasmopara viticola): ≥ 80%
inhibition of growth at 20 ppm [2]: ≥ 80%
pest or weed control at 200 ppm (Pyrenophora teres): ≥ 80%
melting point: 85 to 89 °C
inhibition of growth at 20 ppm [3]: ≥ 80%
inhibition of growth at 20 ppm [12]: ≥ 80%
pest or weed control at 200 ppm [4]: ≥ 80%
inhibition of growth at 20 ppm [5]: ≥ 80%
pest or weed control at 200 ppm [6]: ≥ 80%
pest or weed control at 200 ppm (Phytophthora infestans): ≥ 80%
inhibition of growth at 20 ppm [11]: ≥ 80%
inhibition of growth at 20 ppm [8]: ≥ 80%
inhibition of growth at 20 ppm (Sclerotinia sclerotiorum): ≥ 80%
pest or weed control at 200 ppm [9]: ≥ 80%

CO/C=C(\Oc1cc(-n2ccc(C(C)C(F)(F)F)n2)ccc1C)C(=O)OC (centres unmarked) [Compound E-23, methyl (Z)-3-methoxy-2-[2-methyl-5-[3-(2,2,2-trifluoro-1-methyl-ethyl)pyrazol-1-yl]phenoxy]prop-2-enoate]
pest or weed control at 200 ppm [1]: ≥ 80%
pest or weed control at 200 ppm (Plasmopara viticola): ≥ 80%
inhibition of growth at 20 ppm [2]: ≥ 80%
melting point: 119 to 122 °C
inhibition of growth at 20 ppm [3]: ≥ 80%
inhibition of growth at 20 ppm [12]: ≥ 80%
inhibition of growth at 20 ppm [5]: ≥ 80%
pest or weed control at 200 ppm (Phytophthora infestans): ≥ 80%
inhibition of growth at 20 ppm [11]: ≥ 80%
inhibition of growth at 20 ppm [8]: ≥ 80%
inhibition of growth at 20 ppm (Sclerotinia sclerotiorum): ≥ 80%
pest or weed control at 200 ppm [9]: ≥ 80%
